Counter-ions that a name gives are not always drawn.
Experiment: in vitro
Details: rat, gh3-tre-luc cells, AC50 (uM) modified / 1000

| SMILES | CC50 at 24 h [µM] |
| --- | --- |
| CC1(C)S[C@@H]2[C@H](NC(=O)[C@H](NC(=O)N3CCN(S(C)(=O)=O)C3=O)c3ccccc3)C(=O)N2[C@H]1C(=O)O [Mezlocillin] | > 50 |
| CCCCCCCCC(CCCCCC)C(=O)O (centres unmarked) [2-Hexyldecanoic acid] | > 90 |
| OCC(S)CS (centres unmarked) [Dimercaprol] | 12.5 |
| C=C[C@H]1CN2CC[C@H]1C[C@H]2[C@H](OC(=O)OCC)c1ccnc2ccc(OC)cc12 [Quinine ethyl carbonate] | > 50 |
| ClC(Cl)Cl [Chloroform] | > 90 |
| Cc1ccccc1Br [2-Bromotoluene] | > 90 |
| CCCC(=O)OCCC(C)CCC=C(C)C (centres unmarked) [Citronellyl butyrate] | > 90 |
| C[N+](C)(C)CCOC(=O)C(O)(c1ccccc1)c1ccccc1 [Metocinium iodide] | > 50 |
| c1ccsc1 [Thiophene] | > 90 |
| O=S(=O)(NS(=O)(=O)C(F)(F)F)C(F)(F)F [Triethylsulfonium bis(trifluoromethanesulfonyl)imide] | > 90 |
| CCCCCCCCCC(=O)O[C@H]1CC[C@H]2[C@@H]3CCC4=CC(=O)CC[C@@H]4[C@H]3CC[C@]12C [Nandrolone decanoate] | > 50 |
| O=C(Oc1ccccc1)Oc1ccccc1 [Diphenylcarbonate] | > 90 |
| O=C(O)c1nc(Cl)ccc1Cl [Clopyralid] | > 90 |
| O=c1[nH]c(=O)c2[nH]c(=O)[nH]c2[nH]1 [Sodium urate] | > 50 |
| CC(=O)c1nccs1 [2-Acetylthiazole] | > 90 |
| CCCCCCCCCCCBr [1-Bromoundecane] | > 50 |
| CCC(N)(CO)CO [2-Amino-2-ethyl-1,3-propanediol] | > 90 |
| c1ccc2c(c1)CCc1ccccc1N2 [10,11-Dihydro-5H-dibenz[b,f]azepine] | > 90 |

| SMILES | CC50 at 24 h [µM] |
| --- | --- |
| CC(C)COC(=O)COc1cc(Cl)c(Cl)cc1Cl [Isobutyl (2,4,5-trichlorophenoxy)acetate] | > 90 |
| COc1ccc(-c2nc3ccc(C4=NNC(=O)CC4C)cc3[nH]2)cc1 (centres unmarked) [Pimobendan hydrochloride] | 36.4 |
| C[C@]1(Cn2ccnn2)[C@H](C(=O)O)N2C(=O)C[C@H]2S1(=O)=O [Tazobactam sodium] | > 50 |
| CC(CCc1ccc(O)cc1)NCC(O)c1ccc(O)cc1 (centres unmarked) [Ractopamine hydrochloride] | > 50 |
| CSSc1ccoc1C [Methyl 2-methyl-3-furyl disulfide] | > 80 |
| CCOC(=O)COC(=O)c1cc(Oc2ccc(C(F)(F)F)cc2Cl)ccc1[N+](=O)[O-] [Fluoroglycofen-ethyl] | > 90 |
| CC(=O)CCC(=O)O [4-Oxopentanoic acid] | > 100 |
| COC(=O)c1ccc(C=O)cc1 [Methyl 4-formylbenzoate] | > 90 |
| C1CCCNCCC1 [Heptamethyleneimine] | > 90 |
| CC1CCCC(=O)C1=O (centres unmarked) [3-Methylcyclohexane-1,2-dione] | > 90 |
| O=C(c1ccccc1)c1ccccc1O [2-Hydroxybenzophenone] | > 90 |
| CCCCCCCCCCCCCCCCCCCCCC(=O)Nc1ccn([C@@H]2O[C@H](CO)[C@@H](O)[C@@H]2O)c(=O)n1 [Enocitabine] | > 50 |
| CCO[Si](CCCNC(N)=O)(OCC)OCC [1-[3-(Triethoxysilyl)propyl]urea] | > 90 |
| CCOc1ccc(NC(=O)CC(C)O)cc1 (centres unmarked) [3-Hydroxy-4-butyrophenetidide] | > 90 |
| O=C1CSC2(CCN(CCCN3c4ccccc4Sc4ccc(Cl)cc43)CC2)N1 [Spiclomazine hydrochloride] | 6.81 |
| Clc1ccccc1CN1CCc2sccc2C1 [Ticlopidine] | 21.6 |
| Nc1ccc(S(=O)(=O)Nc2cnc3ccccc3n2)cc1 [Sulfaquinoxaline] | > 90 |
| O=C1CC2(CCCC2)CC(=O)N1CCCCN1CCN(c2ncccn2)CC1 [Buspirone] | 89.7 |

Same assay, conditions: rat, gh3-tre-luc cells, AC50 (uM) modified / 1000, Tox21_110001=Tox21_200855; viability, 1 nM T3 present, 24 h

| SMILES | CC50 at 24 h [µM] |
| --- | --- |
| CC(C)OS(C)(=O)=O [Isopropyl methanesulfonate] | > 90 |

Same assay, conditions: rat, gh3-tre-luc cells, AC50 (uM) modified / 1000, Tox21_110001=Tox21_302104; viability, 1 nM T3 present, 24 h

| SMILES | CC50 at 24 h [µM] |
| --- | --- |
| C1CCC(C2CCCCC2)CC1 [Dicyclohexyl] | > 90 |
